Data from patent US11549123B2, “Plant EPSP synthases and methods of use” (PIONEER HI-BRED INTERNATIONAL, INC., priority 2015, dated 2023).
Where a chain is given by its changes, count along the chain named.

Experiments:
Assay type in all cases: biochemical
[1] = molecular target: T1, Zea mays EPSPS variant Zm-H6 (868-H6) with K246G (H6-K246G) (Zea mays, UniProt O24566, A1R/A3W/A415G/A71Q/D401G/E301S/E390G/G101A/I207L/K245G/K83R/L97C/T278A/T360S/T440Q/V437R); assay: Substrate saturation kinetic analysis with glyphosate, H6-K246G
T1 construct: 868-H6 plus K246G; E. coli BL21(DE3), Ni-NTA purified
T1 sequence (O24566 with tags, fused parts or gaps A1R/A3W/A71Q/K83R/L97C/G101A/I207L/K245G/T278A/E301S/T360S/E390G/D401G/A415G/V437R/T440Q): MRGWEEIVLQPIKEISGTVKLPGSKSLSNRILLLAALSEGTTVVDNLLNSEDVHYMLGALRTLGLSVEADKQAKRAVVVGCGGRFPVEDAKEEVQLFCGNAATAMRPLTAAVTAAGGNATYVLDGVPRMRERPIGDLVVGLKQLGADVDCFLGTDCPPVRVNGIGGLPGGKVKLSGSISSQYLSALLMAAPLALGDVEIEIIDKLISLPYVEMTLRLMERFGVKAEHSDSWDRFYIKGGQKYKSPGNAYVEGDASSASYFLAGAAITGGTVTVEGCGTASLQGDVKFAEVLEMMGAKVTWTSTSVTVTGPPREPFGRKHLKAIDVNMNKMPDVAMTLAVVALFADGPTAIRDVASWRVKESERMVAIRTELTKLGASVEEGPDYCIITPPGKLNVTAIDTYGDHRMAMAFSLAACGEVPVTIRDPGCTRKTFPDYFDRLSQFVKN

[2] = molecular target: EPSPS enzyme comprising 103I, 107S, and 445G (Zea mays, UniProt O24566, N444G/P106S/T102I); assay: kcat/KM*KI of EPSPS comprising 103I, 107S, 445G; conditions: glyphosate as inhibitor
EPSPS enzyme comprising 103I, 107S, and 445G, sequence (O24566 entry or part of it T102I/P106S/N444G): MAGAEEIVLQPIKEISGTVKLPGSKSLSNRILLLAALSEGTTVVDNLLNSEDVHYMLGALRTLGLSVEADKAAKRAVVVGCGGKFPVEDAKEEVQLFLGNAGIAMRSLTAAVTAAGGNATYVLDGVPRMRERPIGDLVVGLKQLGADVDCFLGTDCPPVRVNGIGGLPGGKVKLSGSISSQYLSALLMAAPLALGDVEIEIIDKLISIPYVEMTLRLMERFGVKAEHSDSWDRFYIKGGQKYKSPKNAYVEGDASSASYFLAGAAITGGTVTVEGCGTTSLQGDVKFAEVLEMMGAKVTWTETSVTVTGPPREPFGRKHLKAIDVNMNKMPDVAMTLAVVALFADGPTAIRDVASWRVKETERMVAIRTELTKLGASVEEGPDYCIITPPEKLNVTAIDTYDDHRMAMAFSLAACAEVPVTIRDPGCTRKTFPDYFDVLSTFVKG
Description: The EPSPS polypeptides and active variants and fragments thereof disclosed herein may have improved catalytic capacity in the presence of glyphosate when compared to previously identified EPSPS polypeptides. The parameter that best indicates the fitness of this trait in vivo is kcat/KM*KI. The EPSPS polypeptides disclosed herein can have an increased kcat/KM*KI, when compared to previously known EPSPS enzymes. By “increase” is intended any statistically significant increase when compared to an appropriate control. In some embodiments, an appropriate control is a previously known EPSPS sequence, such as that set forth in SEQ ID NO:2 (maize), SEQ ID NO:7 (rice), SEQ ID NO:8 (sorghum), SEQ ID NO:9 (sunflower), SEQ ID NO:13 (soybean), SEQ ID NO:14 (wheat), SEQ ID NO:15 (Brassica rapa), SEQ ID NO:16 (tomato), or SEQ ID NO:17 (potato). In some embodiments, the increase in the kcat/KM*KI when compared to SEQ ID NO:2, 7, 8 9, 13, 14, 15, 16, or 17 can comprise about a 150, 200, 250, 300, 350, 400, 450, 500, 550, 600, 650, 700, 750, 800-fold or greater increase. In still further embodiments, kcat/KM*KI may include, for example, a kcat/KM*KI of more than about 2000, 2500, 3000, 3500, 4000, 4500, 5000, 5500, 6000, 6500, 7000, 7500, 8000, 8500, 9000, 9500, 10000, or more.

[3] = molecular target: T2, Zea mays EPSPS variant Zm-H6 (868-H6) with D196V (H6-D196V) (Zea mays, UniProt O24566, A1R/A3W/A415G/A71Q/D195V/D401G/E301S/E390G/G101A/I207L/K83R/L97C/T278A/T360S/T440Q/V437R); assay: Substrate saturation kinetic analysis with glyphosate, H6-D196V
T2 construct: shuffled variant 868-H6 plus D196V; E. coli BL21(DE3), Ni-NTA purified
T2 sequence (O24566 with tags, fused parts or gaps A1R/A3W/A71Q/K83R/L97C/G101A/D195V/I207L/T278A/E301S/T360S/E390G/D401G/A415G/V437R/T440Q): T1 sequence (O24566 with tags, fused parts or gaps A1R/A3W/A71Q/K83R/L97C/G101A/I207L/K245G/T278A/E301S/T360S/E390G/D401G/A415G/V437R/T440Q) with D196V, G246K

O=C(O)CNCP(=O)(O)O [glyphosate, N-phosphonomethylglycine]
Ki [1]: 284 µM | (kcat/KM)*KI ([1]; substrate saturation, H6-K246G): 2490 | (kcat/KM)*KI [2]: 2254 | Ki [3]: 699 µM | (kcat/KM)*KI ([3]; substrate saturation, H6-D196V): 1860
